Test results as given in patent US20240343681A1, “MOLECULES HAVING PESTICIDAL UTILITY AND INTERMEDIATES AND PROCESSES RELATED THERETO” (priority 2021, published 2024).

Key:
[1] = system: Beet Armyworm (Spodoptera exigua, LAPHEG) second instar larva; experiment: Bioassay on beet armyworm (BAW), 128-well diet tray assay; assay type: in vivo; conditions: 50 μg/cm^2 on artificial diet, 25° C., five days
Summary of the method: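 Test molecule in 90:10 acetone–water applied at 50 μg/cm^2 onto 1 mL artificial diet and dried; one second-instar larva per well, eight wells. Held 5 days at 25 °C, 14:10 light–dark; percent mortality averaged over the eight wells.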

[2] = system: Yellow Fever Mosquito (Aedes aegypti, AEDSAE) larvae; experiment: Bioassay on yellow fever mosquito (YFM), 96-well plate larval assay; assay type: in vivo; conditions: 4000 ppm (master plate solution), about 1 day-old larvae, 3 days
Description: Example B: Bioassays on Yellow Fever Mosquito (Aedes aegypti, AEDSAE) (“YFM”)
Master plates containing 400 μg of a molecule dissolved in 100 μL of dimethyl sulfoxide (DMSO) (equivalent to a 4000 ppm solution) are used. A master plate of assembled molecules contains 15 μL per well. To this plate, 135 μL of a 90:10 water/acetone mixture is added to each well. A robot (Biomek® NXP Laboratory Automation Workstation) is programmed to dispense 15 μL aspirations from the master plate into an empty 96-well shallow plate (“daughter” plate). There are 6 reps (“daughter” plates) created per master. The created “daughter” plates are then immediately infested with YFM larvae.
The day before plates are to be treated, mosquito eggs are placed in Millipore water containing liver powder to begin hatching (4 g into 400 mL). After the “daughter” plates are created using the robot, they are infested with 220 μL of the liver powder/larval mosquito mixture (about 1 day-old larvae). After plates are infested with mosquito larvae, a non-evaporative lid is used to cover the plate to reduce drying. Plates are held at room temperature for 3 days prior to grading. After 3 days, each well is observed and scored based on mortality.

SMILES	activity against BAW (percent mortality, averaged over eight wells) [1]	activity against YFM (scored based on mortality) [2]
O=C(Nc1ccc(Cl)c(NC(=O)C(F)(F)F)c1)[C@H]1[C@H](c2cc(Cl)cc(Cl)c2)C1(Cl)Cl (racemic) [F53, trans-rac-2,2-dichloro-N-(4-chloro-3-(2,2,2-trifluoroacetamido)phenyl)-3-(3,5-dichlorophenyl)cyclopropane-1-carboxamide]	exhibited activity	exhibited activity
O=C(Nc1ccc(Cl)c(NC(=O)C(F)(F)Cl)c1)[C@H]1[C@H](c2cc(Cl)cc(Cl)c2)C1(Cl)Cl (racemic) [F54, trans-rac-2,2-Dichloro-N-(4-chloro-3-(2-chloro-2,2-difluoroacetamido)phenyl)-3-(3,5-dichlorophenyl)cyclopropane-1-carboxamide]	exhibited activity	exhibited activity
O=C(Nc1ccc(Cl)c(NC(=O)C(F)(F)C(F)(F)C(F)(F)F)c1)[C@H]1[C@H](c2cc(Cl)cc(Cl)c2)C1(Cl)Cl (racemic) [F56, trans-rac-2,2-Dichloro-N-(4-chloro-3-(2,2,3,3,4,4,4-heptafluorobutanamido)phenyl)-3-(3,5-dichlorophenyl)cyclopropane-1-carboxamide]	exhibited activity	exhibited activity
CCC(F)(F)C(=O)Nc1cc(NC(=O)[C@H]2[C@H](c3cc(Cl)cc(Cl)c3)C2(Cl)Cl)ccc1Cl (racemic) [F58, trans-rac-2,2-Dichloro-N-(4-chloro-3-(2,2-difluorobutanamido)phenyl)-3-(3,5-dichlorophenyl)cyclopropane-1-carboxamide]	exhibited activity	exhibited activity
Cc1cc(C#N)ccc1C(=O)Nc1cc(NC(=O)[C@H]2[C@H](c3cc(Cl)cc(Cl)c3)C2(Cl)Cl)ccc1F (racemic) [F60, trans-rac-4-Cyano-N-(5-(2,2-dichloro-3-(3,5-dichlorophenyl)cyclopropane-1-carboxamido)-2-fluorophenyl)-2-methylbenzamide]	exhibited activity	exhibited activity
O=C(Nc1cc(NC(=O)[C@H]2[C@H](c3cc(Cl)cc(Cl)c3)C2(Cl)Cl)ccc1F)c1c(F)cccc1F (racemic) [F61, trans-rac-N-(5-(2,2-Dichloro-3-(3,5-dichlorophenyl)cyclopropane-1-carboxamido)-2-fluorophenyl)-2,6-difluorobenzamide]	exhibited activity	exhibited activity
O=C(Nc1cc(NC(=O)[C@H]2[C@H](c3cc(Cl)cc(Cl)c3)C2(Cl)Cl)ccc1F)c1cc(F)cc(F)c1 (racemic) [F62, trans-rac-N-(5-(2,2-Dichloro-3-(3,5-dichlorophenyl)cyclopropane-1-carboxamido)-2-fluorophenyl)-3,5-difluorobenzamide]	exhibited activity	exhibited activity
CC(CC(=O)Nc1cc(NC(=O)C2C(c3cc(Cl)cc(Cl)c3)C2(Cl)Cl)ccc1F)C(F)(F)F (racemic) [F64, trans-rac-2,2-Dichloro-3-(3,5-dichlorophenyl)-N-(4-fluoro-3-(4,4,4-trifluoro-3-methylbutanamido)phenyl)cyclopropane-1-carboxamide]	exhibited activity	exhibited activity
O=C(Nc1cc(NC(=O)[C@H]2[C@H](c3cc(Cl)cc(Cl)c3)C2(Cl)Cl)ccc1Cl)c1ccc(F)c(F)c1 (racemic) [F67, trans-rac-N-(2-Chloro-5-(2,2-dichloro-3-(3,5-dichlorophenyl)cyclopropane-1-carboxamido)phenyl)-3,4-difluorobenzamide]	exhibited activity	exhibited activity
O=C(Nc1cc(NC(=O)[C@H]2[C@H](c3cc(Cl)cc(Cl)c3)C2(Cl)Cl)ccc1Cl)c1cccc(F)c1F (racemic) [F68, trans-rac-N-(2-Chloro-5-(2,2-dichloro-3-(3,5-dichlorophenyl)cyclopropane-1-carboxamido)phenyl)-2,3-difluorobenzamide]	exhibited activity	exhibited activity
O=C(Nc1cc(NC(=O)[C@H]2[C@H](c3cc(Cl)cc(Cl)c3)C2(Cl)Cl)ccc1Cl)c1cc(F)ccc1F (racemic) [F69, trans-rac-N-(2-Chloro-5-(2,2-dichloro-3-(3,5-dichlorophenyl)cyclopropane-1-carboxamido)phenyl)-2,5-difluorobenzamide]	exhibited activity	exhibited activity
N#Cc1ccc(C(=O)Nc2cc(NC(=O)[C@H]3[C@H](c4cc(Cl)cc(Cl)c4)C3(Cl)Cl)ccc2Cl)cc1 (racemic) [F70, trans-rac-N-(2-Chloro-5-(2,2-dichloro-3-(3,5-dichlorophenyl)cyclopropane-1-carboxamido)phenyl)-4-cyanobenzamide]	exhibited activity	exhibited activity
N#Cc1ccc(C(=O)Nc2cc(NC(=O)[C@H]3[C@H](c4cc(Cl)cc(Cl)c4)C3(Cl)Cl)ccc2Cl)c(F)c1 (racemic) [F71, trans-rac-N-(2-Chloro-5-(2,2-dichloro-3-(3,5-dichlorophenyl)cyclopropane-1-carboxamido)phenyl)-4-cyano-2-fluorobenzamide]	exhibited activity	exhibited activity
N#Cc1ccc(C(=O)Nc2cc(NC(=O)[C@H]3[C@H](c4cc(Cl)cc(Cl)c4)C3(Cl)Cl)ccc2Cl)cc1F (racemic) [F72, trans-rac-N-(2-Chloro-5-(2,2-dichloro-3-(3,5-dichlorophenyl)cyclopropane-1-carboxamido)phenyl)-4-cyano-3-fluorobenzamide]	exhibited activity	exhibited activity
Cc1cccc(C(=O)Nc2cc(NC(=O)[C@H]3[C@H](c4cc(Cl)cc(Cl)c4)C3(Cl)Cl)ccc2Cl)c1 (racemic) [F74, trans-rac-N-(2-Chloro-5-(2,2-dichloro-3-(3,5-dichlorophenyl)cyclopropane-1-carboxamido)phenyl)-3-methylbenzamide]	exhibited activity	exhibited activity
Cc1ccc(C(=O)Nc2cc(NC(=O)[C@H]3[C@H](c4cc(Cl)cc(Cl)c4)C3(Cl)Cl)ccc2Cl)cc1 (racemic) [F75, trans-rac-N-(2-Chloro-5-(2,2-dichloro-3-(3,5-dichlorophenyl)cyclopropane-1-carboxamido)phenyl)-4-methylbenzamide]	exhibited activity	exhibited activity
Cc1cc(F)ccc1C(=O)Nc1cc(NC(=O)[C@H]2[C@H](c3cc(Cl)cc(Cl)c3)C2(Cl)Cl)ccc1Cl (racemic) [F77, trans-rac-N-(2-Chloro-5-(2,2-dichloro-3-(3,5-dichlorophenyl)cyclopropane-1-carboxamido)phenyl)-4-fluoro-2-methylbenzamide]	exhibited activity	exhibited activity
O=C(Nc1cc(NC(=O)[C@H]2[C@H](c3cc(Cl)cc(Cl)c3)C2(Cl)Cl)ccc1Cl)c1ccccc1Cl (racemic) [F78, trans-rac-2-Chloro-N-(2-chloro-5-(2,2-dichloro-3-(3,5-dichlorophenyl)cyclopropane-1-carboxamido)phenyl)benzamide]	exhibited activity	exhibited activity
O=C(Nc1cc(NC(=O)[C@H]2[C@H](c3cc(Cl)cc(Cl)c3)C2(Cl)Cl)ccc1Cl)c1ccc(Cl)cc1 (racemic) [F79, trans-rac-4-Chloro-N-(2-chloro-5-(2,2-dichloro-3-(3,5-dichlorophenyl)cyclopropane-1-carboxamido)phenyl)benzamide]	exhibited activity	exhibited activity
O=C(Nc1cc(NC(=O)[C@H]2[C@H](c3cc(Cl)cc(Cl)c3)C2(Cl)Cl)ccc1Cl)c1cc(Cl)cc(Cl)c1 (racemic) [F80, trans-rac-3,5-Dichloro-N-(2-chloro-5-(2,2-dichloro-3-(3,5-dichlorophenyl)cyclopropane-1-carboxamido)phenyl)benzamide]	exhibited activity	exhibited activity
O=C(Nc1cc(NC(=O)[C@H]2[C@H](c3cc(Cl)cc(Cl)c3)C2(Cl)Cl)ccc1Cl)c1ccc(C(F)(F)F)cc1 (racemic) [F82, trans-rac-N-(2-Chloro-5-(2,2-dichloro-3-(3,5-dichlorophenyl)cyclopropane-1-carboxamido)phenyl)-4-(trifluoromethyl)benzamide]	exhibited activity	exhibited activity
